Assay results reported in article PMC6274474, “Synthesis and Cytotoxic Activity on Human Cancer Cells of Novel Isoquinolinequinone–Amino Acid Derivatives” (Molecules, 2016).

Key:
[1] = system: MRC-5 normal human lung fibroblasts; assay: MTT cytotoxicity assay, 72 h, normal human lung fibroblasts; assay type: cell-based; conditions: for IC50: MRC5, normal human lung fibroblasts, MTT, 72 h exposure, six determinations, read-out: IC50 ± SEM MRC-5
Method: (§1) The series of isoquinolinequinone amino ester conjugates (Table 1) and the bromine derivatives (Table 2) were evaluated for their in vitro cytotoxic activities against normal human lung fibroblast (MRC-5) and three human cancer cells lines: human gastric adenocarcinoma (AGS), human lung cancer (SK-MES-1), and human bladder carcinoma (J82), in 72 h drug exposure assays. The cytotoxic activities of the new compounds were measured using conventional microculture tetrazolium reduction assays. The cytotoxic activities of each of the quinones are expressed in terms of IC50.
(§2) Cytotoxicity assay (Table 3 and Table 4). […] MRC-5, SK-MES-1, and J82 cells were grown in Eagle’s minimal essential medium (EMEM) containing 2 mM L-glutamine, 1 mM sodium pyruvate and 1.5 g/L sodium hydrogen carbonate. AGS cells were grown in Ham F-12 supplemented with 2 mM L-glutamine and 1.5 g/L sodium hydrogen carbonate. Finally, HL-60 cells were grown in RPMI medium. […] For the cytotoxicity experiments, cells were seeded into 96-well plates at a density of 50,000 cells/mL. After reaching confluence, cells were incubated for three days with compounds at varied concentrations ranging from 0 up to 100 μM while untreated cells (medium containing 1% DMSO) were used as controls. Cytotoxicity was assessed using the MTT (3-(4,5-dimethylthiazol-2-yl)-2,5-diphenyltetrazolium bromide) reduction assay. MTT was used at 1 mg/mL and the blue formazan crystals, formed during MTT reduction, were dissolved adding 100 μL of ethanol (acidified with HCl). The absorbance was measured at 550 nm using a Universal Microplate Reader (ELX 800, Bio-Tek Instruments Inc., Winooski, VT, USA). Values were the means of six replicates for each concentration and transformed to percentage of controls. The IC50 value was graphically obtained from the dose–response curves by adjusting them to a sigmoidal model (a + (b − a)/1 + 10(x − c)), where c = log IC50.

[2] = system: J82 human bladder carcinoma cells; assay: MTT cytotoxicity assay, 72 h, bladder carcinoma cells; assay type: cell-based; conditions: 72 h exposure, six determinations, read-out: IC50 ± SEM J82
Method: as §1, §2

[3] = system: SK-MES-1 human lung cancer cells; assay: MTT cytotoxicity assay, 72 h, lung cancer cells; assay type: cell-based; conditions: 72 h exposure, six determinations, read-out: IC50 ± SEM SK-MES-1
Method: as §1, §2

[4] = system: AGS, SK-MES-1 and J82 human cancer cell lines; assay: MTT cytotoxicity, 72 h, panel summary (mean/range/selective index) over AGS, SK-MES-1, J82 vs MRC-5; assay type: cell-based; conditions: for MSI: Mean Selective Index = IC50 values for fibroblasts/IC50 values tumor cells: MRC-5 vs AGS; for MSI: Mean Selective Index = IC50 values for fibroblasts/IC50 values tumor cells / IC50: SK-MES-1, J82; for IC50: Homo sapiens, SK-MES-1, mean over AGS, read-out: mean IC50 on cancer cells
Method: as §1, §2

[5] = system: AGS human gastric adenocarcinoma cells; assay: MTT cytotoxicity assay, 72 h, gastric adenocarcinoma cells; assay type: cell-based; conditions: 72 h exposure, six determinations, read-out: IC50 ± SEM AGS
Method: as §1, §2

[6] = system: AG 1523 normal human fibroblasts; assay: MTT cytotoxicity assay, 48 h, normal human fibroblasts; assay type: cell-based; conditions: AG1523, healthy non-tumor fibroblasts, three experiments, read-out: IC50 ± SEM AG 1523
Method: (§3) Cytotoxicity assay (Table 5). […] The cytotoxic effect of compounds on cell lines was assessed using the MTT assay as reported previously. Briefly, 10,000 cells/well were plated for 24 h in 96-well plates and, after reaching confluence, the cells were incubated for 48 h with DMSO or in the presence of compounds. Cells were washed twice with warm phosphate-buffered saline (PBS) and further incubated for 2 h with MTT (0.5 mg/mL). The blue formazan crystals were then solubilized by adding 100 μL DMSO/well and optical density of colored solutions was read at 550 nm. Results are expressed as % of MTT reduction compared to untreated control conditions. The calculation of IC50 values was performed by using GraphPad Prism software (San Diego, CA, USA).

[7] = system: DU-145 (prostate) human cancer cells; assay: MTT cytotoxicity assay, 48 h, prostate cancer cells; assay type: cell-based; conditions: three experiments, read-out: IC50 ± SEM DU-145
Method: as §3

[8] = system: T24 (bladder) human cancer cells; assay: MTT cytotoxicity assay, 48 h, bladder cancer cells; assay type: cell-based; conditions: three experiments, read-out: IC50 ± SEM T24
Method: as §3

[9] = system: T24, DU-145 and MCF-7 human cancer cell lines; assay: MTT cytotoxicity, 48 h, panel summary (range/selective index) over T24, DU-145, MCF-7 vs AG 1523; assay type: cell-based
Method: as §3

[10] = system: MCF-7 (breast) human cancer cells; assay: MTT cytotoxicity assay, 48 h, breast cancer cells; assay type: cell-based; conditions: MCF7, three experiments, read-out: IC50 ± SEM MCF-7
Method: as §3

Row | melting point [°C] | SMILES | IC50 [1] [µM] | IC50 [2] [µM] | IC50 [3] [µM] | MSI: Mean Selective Index = IC50 values for fibroblasts/IC50 values tumor cells [4] | IC50 [5] [µM] | IC50 [4] [µM] | SI (normal fibroblasts) ([1]; as printed for normal fibroblasts) | IC50 [6] [µM] | IC50 [7] [µM] | IC50 [8] [µM] | MSI on lung and bladder cancer cells ([4]; MRC-5 vs SK-MES-1 and J82 only) | SI ([9]; AG 1523 fibroblasts vs T24, DU-145, MCF-7) | IC50 ([9]; Homo sapiens, range over T24, DU-145, MCF-7, 48 h MTT, read-out: IC50 range in cancer cells) [µM] | IC50 [10] [µM]
1 | – | COC(=O)c1c(C)ncc2c1C(=O)C=C(N[C@@H](CC(C)C)C(=O)OC)C2=O [Compound 4a] | 5.7 ± 0.29 | 7.65 ± 0.51 | 4.56 ± 0.31 | 1.13 | 2.97 ± 0.15 | – | – | – | – | – | – | – | – | –
2 | 125.2 to 127.5 | COC(=O)c1c(C)ncc2c1C(=O)C(Br)=C(NC(Cc1ccccc1)C(=O)OC)C2=O (stereo not shown) [Compound 15] | 4.48 ± 0.27 | 4.61 ± 0.36 | 2.13 ± 0.12 | 1.52 | 2.08 ± 0.13 | – | – | – | – | – | – | – | – | –
3 | – | COC(=O)c1c(C)ncc2c1C(=O)C=C(N[C@@H](Cc1ccccc1)C(=O)OC)C2=O [Compound 6a, Methyl 6- and 7-(1-methoxy-1-oxo-3-phenylpropan-2-ylamino)-3-methyl-5,8-dioxo-5,8-dihydroisoquinoline-4-carboxylate] | 6.73 ± 0.34 | 4.68 ± 0.23 | 2.5 ± 0.15 | – | 1.85 ± 0.13 | < 4 | – | – | – | – | – | – | – | –
4 | 76.5 to 78.5 | COC(=O)c1c(C)ncc2c1C(=O)C(N[C@@H](Cc1ccc(O)cc1)C(=O)OC)=CC2=O [Compound 7b] | 3.74 ± 0.26 | 7.11 ± 0.55 | 2.57 ± 0.12 | 1.00 | 1.53 ± 0.06 | – | – | – | – | – | – | – | – | –
5 | 120.5 to 122 | COC(=O)c1c(C)ncc2c1C(=O)C(Br)=C(NC(C)C(=O)OC)C2=O (stereo not shown) [Compound 12, Methyl 6-bromo-7-(1-methoxy-1-oxopropan-2-ylamino)-3-methyl-5,8-dioxo-5,8-dihydroisoquinoline-4-carboxylate] | 2.86 ± 0.17 | 3.76 ± 0.26 | 1.96 ± 0.11 | 1.10 | 2.07 ± 0.11 | – | – | – | – | – | – | – | – | –
6 | – | COC(=O)c1c(C)ncc2c1C(=O)C=C(N[C@@H](C)C(=O)OC)C2=O [Compound 2a, Methyl 6- and 7-(1-methoxy-1-oxopropan-2-ylamino)-3-methyl-5,8-dioxo-5,8-dihydroisoquinoline-4-carboxylate] | 9.04 ± 0.69 | 6.25 ± 0.44 | 2.65 ± 0.19 | – | 2.25 ± 0.15 | < 4 | – | – | – | – | – | – | – | –
7 | 104.3 to 106.2 | COC(=O)c1c(C)ncc2c1C(=O)C(Br)=C(NC(CC(C)C)C(=O)OC)C2=O (stereo not shown) [Compound 14] | > 100 | 2.21 ± 0.17 | 0.92 ± 0.04 | – | > 100 | – | > 100 | 1.57 ± 0.2 | 0.64 ± 0.06 | 0.67 ± 0.06 | > 45 | 2.62 | 0.5 to 0.67 | 0.5 ± 0.05
